# In patent publication US20250025443A1, “COMPOUNDS AND METHODS FOR TREATING CORONA VIRUSES” (CLEAR CREEK BIO, INC., priority 2021, published 2025):
# Target: SARS-CoV-2 Papain-Like Protease (PLpro) (Severe acute respiratory syndrome coronavirus 2 (2019-nCoV) (SARS-CoV-2), UniProt P0DTD1)
# Assay: biochemical
# Conditions: PLpro enzymatic fluorescence assay; class symbols; read-out: PLpro IC50
row,SMILES,IC50
1,"C=Cc1cc(C2(NC(=O)c3cc(OC[C@@H]4CCN4C)c(O)cc3C)CC2)c2cccnc2c1 [Compound 755, (S)-4-Hydroxy-2-methyl-5-((1-methylazetidin-2-yl)methoxy)-N-(1-(7-vinylquinolin-5-yl)cyclopropyl)benzamide]",< 100 nM
2,"Cc1ccc(OC[C@@H]2CCN2)cc1C(=O)NC1(c2cc(-c3ccc(F)c(Cl)c3)cc3ncccc23)CC1 [Compound 666, (S)-5-(Azetidin-2-ylmethoxy)-N-(1-(7-(3-chloro-4-fluorophenyl)quinolin-5-yl)cyclopropyl)-2-methylbenzamide]",< 100 nM
3,"Cc1ccc(OCCN(C)C)cc1C(=O)NC1(c2cccc(O)c2)CC1 [Compound 306, 5-(2-(Dimethylamino)ethoxy)-N-(1-(3-hydroxyphenyl)cyclopropyl)-2-methylbenzamide]",> 5000 nM
4,"Cc1ccc(OC[C@@H]2CCN2C)cc1C(=O)NC1(c2cc(-c3ccc(CN4CCC(F)(F)C4)s3)cc3ncccc23)CC1 [Compound 805, (S)—N-(1-(7-(5-((3,3-Difluoropyrrolidin-1-yl)methyl)thiophen-2-yl)quinolin-5-yl)cyclopropyl)-2-methyl-5-((1-methylazetidin-2-yl)methoxy)benzamide]",< 100 nM
5,"CC(=O)c1ccc(-c2cc(C3(NC(=O)c4cc(OC[C@@H]5CCN5)ccc4C)CC3)c3cccnc3c2)s1 [Compound 643, (S)-N-(1-(7-(5-Acetylthiophen-2-yl)quinolin-5-yl)cyclopropyl)-5-(azetidin-2-ylmethoxy)-2-methylbenzamide]",< 100 nM
6,"Cc1ccc(OC[C@@H]2CCN2)cc1C(=O)NC1(c2cc(-c3cnoc3)cc3ncccc23)CC1 [Compound 714, (S)-5-(Azetidin-2-ylmethoxy)-N-(1-(7-(isoxazol-4-yl)quinolin-5-yl)cyclopropyl)-2-methylbenzamide]",< 100 nM

# Same assay, conditions: SARS-CoV-2 PLpro enzymatic fluorescence assay; read-out: PLpro IC50
row,SMILES,IC50
1,"Cc1ccc(OC[C@@H]2CCN2C)cc1C(=O)NC1(c2cccc3cc(F)ccc23)CC1 [Compound 389, (S)-N-(1-(6-Fluoronaphthalen-1-yl)cyclopropyl)-2-methyl-5-((1-methylazetidin-2-yl)methoxy)benzamide]",< 100 nM
2,"Cc1ccc(OCC2CCN2C)cc1C(=O)NC1(c2cccc3nc(F)ccc23)CC1 (centres unmarked) [Compound 529, N-(1-(2-Fluoroquinolin-5-yl)cyclopropyl)-2-methyl-5-((1-methylazetidin-2-yl)methoxy)benzamide]",< 100 nM
3,"CCS(=O)(=O)N1CCC([C@@H](C)NC(=O)c2cc(NC3CNC3)ccc2C)CC1 [Compound 166, (R)-5-(Azetidin-3-ylamino)-N-(1-(1-(ethylsulfonyl)piperidin-4-yl)ethyl)-2-methylbenzamide]",> 5000 nM
4,"COc1cc(C2(NC(=O)c3cc(OCC4CCN4C)ccc3C)COC2)c2ccccc2c1 (centres unmarked) [Compound 450, N-(3-(3-Methoxynaphthalen-1-yl)oxetan-3-yl)-2-methyl-5-((1-methylazetidin-2-yl)methoxy)benzamide]",< 100 nM
5,"Cc1ccc(OCC2CCCN2C)cc1C(=O)NC1(c2cccc3ccccc23)CC1 (centres unmarked) [Compound 283, 2-Methyl-5-((1-methylpyrrolidin-2-yl)methoxy)-N-(1-(naphthalen-1-yl)cyclopropyl)benzamide]",< 100 nM
6,"C=Cc1cc(C2(NC(=O)c3cc(OC45CCCN(CCC4)C5)ccc3C)CC2)c2cccnc2c1 [Compound 749, 5-(1-Azabicyclo[3.3.1]nonan-5-yloxy)-2-methyl-N-(1-(7-vinylquinolin-5-yl)cyclopropyl)benzamide]",< 100 nM
7,"Cc1cc2cc(-c3ccccn3)[nH]c2cc1C(=O)NC1(c2cccc3ccccc23)CC1 [Compound 234, 5-Methyl-N-(1-(naphthalen-1-yl)cyclopropyl)-2-(pyridin-2-yl)-1H-indole-6-carboxamide]",100 to 1000 nM
8,"Cc1ccc(OCCN(C)C)cc1NC(=O)C1(c2cccc3ccccc23)CC1 [Compound 580, N-(5-(2-(Dimethylamino)ethoxy)-2-methylphenyl)-1-(naphthalen-1-yl)cyclopropane-1-carboxamide]",> 5000 nM
